Tests used:
[1] = system: Escherichia coli NBRC 3972; experiment: Sterilizing (microorganism growth inhibiting) effect, viable bacterial count; format: cell-based; settings: one hour after inoculation, room temperature, phosphate-buffered saline, vs control; FIG. 1, result in words
Protocol: Escherichia coli (Escherichia coli NBRC 3972) was used as a test bacterium. Escherichia coli was inoculated onto a standard agar medium and cultured at 30° C. to 35° C. for 24 hours. After culturing, the bacterial count was adjusted to […] using saline, whereby a test bacterial solution was obtained. Phosphate-buffered saline and ergothioneine were mixed to prepare a test sample 1 (ergothioneine concentration: 100 ppm (0.01 wt %)). Phosphate-buffered saline and isoquercitrin were mixed to prepare a test sample 2 (isoquercitrin concentration: 100 ppm (0.01 wt %)). Phosphate-buffered saline, ergothioneine, and isoquercitrin were mixed to prepare a test sample 3 (ergothioneine concentration: 2.5 ppm (0.00025 wt %), isoquercitrin concentration: 100 ppm (0.01 wt %)). Phosphate-buffered saline, ergothioneine, and isoquercitrin were mixed to prepare a test sample 4 (ergothioneine concentration: 100 ppm (0.01 wt %), isoquercitrin concentration: 100 ppm (0.01 wt %)). Phosphate-buffered saline was used as control. A test sample (5 mL) was inoculated with a 0.05 mL test bacterial solution and left standing at room temperature. […] After culturing, the number of colonies formed was counted, and the viable bacterial count was calculated (n=3). The sterilizing effect (%) was determined from the viable bacterial count (average of n=3) using the following formula. […]

[2] = system: human β-defensin-1 (hBD-1); settings: human immortalized keratinocyte cells (HaCaT cells); Patent Literature 1; cited from earlier work
[3] = system: human β-defensin-3 (hBD-3); settings: human immortalized keratinocyte cells (HaCaT cells); Patent Literature 1; cited from earlier work
[4] = system: Escherichia coli; settings: Non-Patent Literature 1; cited from earlier work
[5] = system: Staphylococcus aureus; settings: Non-Patent Literature 1; cited from earlier work

C[N+](C)(C)[C@@H](Cc1c[nH]c(=S)[nH]1)C(=O)[O-] [L-ergothioneine]
Sterilizing effect on Escherichia coli [1]: no sterilizing effect
expression level of mRNA in hBD-1 [2]: increased
expression level of mRNA in hBD-3 [3]: increased

O=c1c(O)c(-c2ccc(O)c(O)c2)oc2cc(O)cc(O)c12 [quercetin]
inhibition of growth of Escherichia coli [4]: inhibition of growth
inhibition of growth of Staphylococcus aureus [5]: inhibition of growth

Reference: US20250082610A1, “COMPOSITION, METHOD FOR MICROORGANISM GROWTH SUPPRESSION IN COMPOSITION FOR ORAL USE, AND AGENT FOR POTENTIATION OF MICROORGANISM-GROWTH-SUPPRESSING EFFECT OF QUERCETIN OR GLYCOSIDE THEREOF” (SUNTORY HOLDINGS LIMITED, priority 2022, published 2025)
